# Experimental data taken from patent US9303027B2 (dated 2016).
# Counter-ions that a name gives are not always drawn.
row,Structure (SMILES),melting point [°C]
1,CN[C@H]1CCN(C[C@@H](NC(=O)C2(c3cccc(NS(C)(=O)=O)c3)CC2)c2ccccc2)C1,80.6 to 80.8
2,NC(=O)c1cccc([C@@H](CN2CCCC2)NC(=O)C2(c3ccc4oc(=O)[nH]c4c3)CC2)c1,139 to 141
3,COc1cccc([C@@H](CN2CC[C@H](O)C2)NC(=O)C2(c3ccc4oc(=O)[nH]c4c3)CC2)c1,125 to 127
4,O=CNc1cc(C2(C(=O)N[C@H](CN3CCCC3)c3ccccc3)CC2)ccc1O (stereo in doubt),175 to 177
5,Cl.O=C(N[C@H](CN1CCCC1)c1ccccc1)C1(c2cccc(O)c2)CC1,80 to 82
6,O=C(N[C@H](CN1CCCC1)c1ccccc1)C1(c2ccc3[nH]c(=O)[nH]c3c2)CC1 (stereo in doubt),207 to 209
7,CS(=O)(=O)Nc1cccc(C2(C(=O)N[C@H](CN3CCCC3)c3cccc(OCC(=O)O)c3)CC2)c1,160 to 162
8,O=C(N[C@H](CN1CCCC1)c1cccc(OCc2ccccc2)c1)C1(c2ccc3oc(=O)[nH]c3c2)CC1,94 to 96
9,CS(=O)(=O)Nc1cc(C2(C(=O)N[C@H](CN3CCCC3)c3ccccc3)CC2)ccc1Cl,280 to 281
10,COc1cccc([C@@H](CN2CCCC2)NC(=O)C2(c3ccc4oc(=O)[nH]c4c3)CC2)c1,92 to 94
11,COC(=O)c1cccc(Cn2c(=O)oc3ccc(C4(C(=O)N[C@H](CN5CCCC5)c5cccc(O)c5)CC4)cc32)c1,112 to 113
12,O=C(N[C@H](CN1CCCC1)c1ccccc1)C1(c2ccc3[nH]c(=O)ccc3c2)CC1,171 to 172
13,CN(C(=O)C1(c2ccccc2)CC1)[C@H](CN1CCCC1)c1ccccc1.Cl,216 to 217
14,CN(C(=O)C1(c2cnc3ccccc3c2)CC1)[C@H](CN1CCCC1)c1ccccc1.Cl,223 to 225
15,O=C(N[C@H](CN1CCCC1)c1ccccc1)C1(c2ccc3oc(=O)[nH]c3c2)CC1 (stereo in doubt),142 to 144
16,N#Cc1cccc([C@@H](CN2CCCC2)NC(=O)C2(c3ccc4oc(=O)[nH]c4c3)CC2)c1 (stereo in doubt),106 to 108
17,CS(=O)(=O)Oc1cccc([C@@H](CN2CCCC2)NC(=O)C2(c3ccc4oc(=O)[nH]c4c3)CC2)c1 (as salt: trifluoroacetate),101 to 103
18,Cl.O=C(N[C@H](CN1CCCC1)c1ccccc1)C1(c2cccc(OCc3ccccc3)c2)CC1,118 to 120
19,CS(=O)(=O)Nc1ccc(C2(C(=O)N[C@H](CN3CCCC3)c3ccccc3)CC2)cc1,165 to 168
20,CS(=O)(=O)Nc1cccc(C2(C(=O)N[C@H](CN3CCCC3)c3ccccc3)CC2)c1,146 to 148
21,O=C(N[C@H](CN1CC[C@H](O)C1)c1ccccc1)C1(c2ccc3oc(=O)[nH]c3c2)CC1,142 to 144
22,O=C(N[C@H](CN1CCCC1)c1ccccc1)C1(c2ccc3ccc(=O)[nH]c3c2)CC1 (stereo in doubt),101 to 103
